Results reported in ChEMBL document CHEMBL4507266, “Data for DCP probe BAY-784” (2021).

Key:
[1] = target: 5-hydroxytryptamine receptor 1B (Homo sapiens) (UniProt P28222); settings: Compound concentration 10.0 uM
[2] = target: BDNF/NT-3 growth factors receptor (Homo sapiens) (UniProt Q16620); settings: Compound concentration 1000.0 nM
[3] = target: Serine/threonine-protein kinase TAO1 (Homo sapiens) (UniProt Q7L7X3); settings: Compound concentration 1000.0 nM
[4] = target: MAP/microtubule affinity-regulating kinase 3 (Homo sapiens) (UniProt P27448); settings: Compound concentration 1000.0 nM
[5] = target: Myotonin-protein kinase (Homo sapiens) (UniProt Q09013); settings: Compound concentration 1000.0 nM
[6] = system: Proto-oncogene tyrosine-protein kinase receptor Ret (Homo sapiens), P07949 [V804M]; settings: Compound concentration 1000.0 nM
[7] = target: Serine/threonine-protein kinase 36 (Homo sapiens) (UniProt Q9NRP7); settings: Compound concentration 1000.0 nM
[8] = target: Serine/threonine-protein kinase Sgk1 (Homo sapiens) (UniProt O00141); settings: Compound concentration 1000.0 nM
[9] = system: Hepatocyte growth factor receptor (Homo sapiens), P08581 [M1250T]; settings: Compound concentration 1000.0 nM
[10] = target: Serine/threonine-protein kinase 25 (Homo sapiens) (UniProt O00506); settings: Compound concentration 1000.0 nM
[11] = target: Serine/threonine-protein kinase PAK 4 (Homo sapiens) (UniProt O96013); settings: Compound concentration 1000.0 nM
[12] = system: Tyrosine-protein kinase ABL1 (Homo sapiens), P00519 [H396P]; settings: Compound concentration 1000.0 nM
[13] = target: Calcium/calmodulin-dependent protein kinase type II subunit delta (Homo sapiens) (UniProt Q13557); settings: Compound concentration 1000.0 nM
[14] = target: T1, Alpha-1D adrenergic receptor (Homo sapiens) (UniProt P25100); settings: Compound concentration 10.0 uM
T1 sequence (whole entry): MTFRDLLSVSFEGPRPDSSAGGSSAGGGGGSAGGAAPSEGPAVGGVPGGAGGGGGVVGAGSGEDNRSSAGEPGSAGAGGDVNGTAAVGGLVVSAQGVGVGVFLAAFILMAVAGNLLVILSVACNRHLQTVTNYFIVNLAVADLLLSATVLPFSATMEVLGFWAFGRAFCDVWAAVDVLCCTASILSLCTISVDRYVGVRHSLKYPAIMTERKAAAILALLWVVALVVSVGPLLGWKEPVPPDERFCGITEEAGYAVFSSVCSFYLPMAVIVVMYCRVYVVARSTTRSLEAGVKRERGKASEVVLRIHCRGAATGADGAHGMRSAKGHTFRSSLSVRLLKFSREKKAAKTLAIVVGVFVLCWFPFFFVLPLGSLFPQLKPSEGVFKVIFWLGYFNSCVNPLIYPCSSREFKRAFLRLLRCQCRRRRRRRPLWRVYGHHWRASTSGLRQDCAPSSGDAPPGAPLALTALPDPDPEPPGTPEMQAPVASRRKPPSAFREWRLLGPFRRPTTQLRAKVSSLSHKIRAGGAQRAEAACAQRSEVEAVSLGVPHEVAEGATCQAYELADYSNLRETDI

[15] = target: Tyrosine-protein kinase ABL1 (Homo sapiens) (UniProt P00519); settings: Compound concentration 1000.0 nM
[16] = system: Mast/stem cell growth factor receptor Kit (Homo sapiens), P10721 [D816H]; settings: Compound concentration 1000.0 nM
[17] = target: Insulin-like growth factor 1 receptor (Homo sapiens) (UniProt P08069); settings: Compound concentration 1000.0 nM
[18] = target: cAMP-dependent protein kinase catalytic subunit beta (Homo sapiens) (UniProt P22694); settings: Compound concentration 1000.0 nM
[19] = target: Serine/threonine-protein kinase MRCK gamma (Homo sapiens) (UniProt Q6DT37); settings: Compound concentration 1000.0 nM
[20] = target: High affinity nerve growth factor receptor (Homo sapiens) (UniProt P04629); settings: Compound concentration 1000.0 nM
[21] = target: Mitogen-activated protein kinase 10 (Homo sapiens) (UniProt P53779); settings: Compound concentration 1000.0 nM
[22] = target: MAP kinase-activated protein kinase 2 (Homo sapiens) (UniProt P49137); settings: Compound concentration 1000.0 nM
[23] = target: SNF-related serine/threonine-protein kinase (Homo sapiens) (UniProt Q9NRH2); settings: Compound concentration 1000.0 nM
[24] = target: 3-phosphoinositide-dependent protein kinase 1 (Homo sapiens) (UniProt O15530); settings: Compound concentration 1000.0 nM
[25] = target: Atypical kinase COQ8B, mitochondrial (Homo sapiens) (UniProt Q96D53); settings: Compound concentration 1000.0 nM
[26] = system: Receptor-type tyrosine-protein kinase FLT3 (Homo sapiens), P36888 [N841I]; settings: Compound concentration 1000.0 nM
[27] = target: TRAF2 and NCK-interacting protein kinase (Homo sapiens) (UniProt Q9UKE5); settings: Compound concentration 1000.0 nM
[28] = target: NT-3 growth factor receptor (Homo sapiens) (UniProt Q16288); settings: Compound concentration 1000.0 nM
[29] = target: Mitogen-activated protein kinase kinase kinase 6 (Homo sapiens) (UniProt O95382); settings: Compound concentration 1000.0 nM
[30] = target: Serine/threonine-protein kinase MRCK alpha (Homo sapiens) (UniProt Q5VT25); settings: Compound concentration 1000.0 nM
[31] = target: Cyclin-dependent kinase 2 (Homo sapiens) (UniProt P24941); settings: Compound concentration 1000.0 nM
[32] = system: Tyrosine-protein kinase ABL1 (Homo sapiens), P00519 [T315I]; settings: Compound concentration 1000.0 nM
[33] = target: Tyrosine-protein kinase Fer (Homo sapiens) (UniProt P16591); settings: Compound concentration 1000.0 nM
[34] = target: Mitogen-activated protein kinase 15 (Homo sapiens) (UniProt Q8TD08); settings: Compound concentration 1000.0 nM
[35] = target: 5-hydroxytryptamine receptor 1E (Homo sapiens) (UniProt P28566); settings: Compound concentration 10.0 uM
[36] = system: Tyrosine-protein kinase ABL1 (Homo sapiens), P00519 [H396P]; settings: Compound concentration 1000.0 nM; remark: listed apart in the source
[37] = system: Tyrosine-protein kinase ABL1 (Homo sapiens), P00519 [Q252H]; settings: Compound concentration 1000.0 nM

Chain of Mitogen-activated protein kinase 10 (Homo sapiens) (P53779 whole entry): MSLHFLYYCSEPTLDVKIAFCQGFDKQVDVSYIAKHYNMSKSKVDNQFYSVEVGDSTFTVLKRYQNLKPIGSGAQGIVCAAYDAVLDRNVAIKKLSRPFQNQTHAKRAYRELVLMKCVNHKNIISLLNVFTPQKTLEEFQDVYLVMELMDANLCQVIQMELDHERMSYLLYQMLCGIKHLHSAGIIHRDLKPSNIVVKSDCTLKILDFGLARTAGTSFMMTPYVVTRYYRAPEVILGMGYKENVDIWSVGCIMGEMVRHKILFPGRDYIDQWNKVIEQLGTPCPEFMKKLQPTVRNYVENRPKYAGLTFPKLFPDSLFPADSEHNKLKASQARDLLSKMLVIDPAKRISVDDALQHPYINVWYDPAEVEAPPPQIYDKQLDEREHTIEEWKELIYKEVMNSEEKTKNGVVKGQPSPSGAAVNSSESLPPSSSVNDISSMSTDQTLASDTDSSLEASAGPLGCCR
Chain of Mitogen-activated protein kinase 15 (Homo sapiens) (Q8TD08 whole entry): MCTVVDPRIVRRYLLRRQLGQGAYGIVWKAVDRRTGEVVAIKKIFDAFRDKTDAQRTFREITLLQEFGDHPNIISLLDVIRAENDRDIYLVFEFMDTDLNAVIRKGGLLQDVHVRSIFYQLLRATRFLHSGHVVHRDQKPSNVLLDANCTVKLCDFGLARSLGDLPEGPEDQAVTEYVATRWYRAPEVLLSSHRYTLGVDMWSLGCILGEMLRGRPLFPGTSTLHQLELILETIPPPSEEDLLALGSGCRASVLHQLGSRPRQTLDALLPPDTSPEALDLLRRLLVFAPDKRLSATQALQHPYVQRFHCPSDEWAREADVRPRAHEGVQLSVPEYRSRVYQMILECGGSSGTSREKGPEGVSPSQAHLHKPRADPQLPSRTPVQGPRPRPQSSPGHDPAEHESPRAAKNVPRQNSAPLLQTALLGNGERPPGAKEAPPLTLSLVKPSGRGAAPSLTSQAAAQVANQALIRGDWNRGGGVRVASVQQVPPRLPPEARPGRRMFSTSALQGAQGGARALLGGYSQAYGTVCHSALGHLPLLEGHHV
Chain of Atypical kinase COQ8B, mitochondrial (Homo sapiens) (Q96D53 whole entry): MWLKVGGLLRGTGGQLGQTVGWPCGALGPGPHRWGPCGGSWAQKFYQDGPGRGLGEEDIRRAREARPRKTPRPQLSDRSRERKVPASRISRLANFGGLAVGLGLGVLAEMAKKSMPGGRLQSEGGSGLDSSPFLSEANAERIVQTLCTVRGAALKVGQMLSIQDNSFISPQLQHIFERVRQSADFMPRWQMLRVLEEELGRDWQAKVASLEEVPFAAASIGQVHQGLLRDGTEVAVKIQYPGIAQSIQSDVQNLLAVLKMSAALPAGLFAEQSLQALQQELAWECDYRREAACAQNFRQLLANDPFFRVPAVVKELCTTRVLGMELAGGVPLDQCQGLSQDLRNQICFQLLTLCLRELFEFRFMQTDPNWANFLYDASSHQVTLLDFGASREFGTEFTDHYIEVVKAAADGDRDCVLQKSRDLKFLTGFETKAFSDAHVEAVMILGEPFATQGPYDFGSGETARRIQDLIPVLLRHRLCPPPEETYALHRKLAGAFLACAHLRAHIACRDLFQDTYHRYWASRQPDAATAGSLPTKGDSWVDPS
Chain of High affinity nerve growth factor receptor (Homo sapiens) (P04629 33-796 limits assumed): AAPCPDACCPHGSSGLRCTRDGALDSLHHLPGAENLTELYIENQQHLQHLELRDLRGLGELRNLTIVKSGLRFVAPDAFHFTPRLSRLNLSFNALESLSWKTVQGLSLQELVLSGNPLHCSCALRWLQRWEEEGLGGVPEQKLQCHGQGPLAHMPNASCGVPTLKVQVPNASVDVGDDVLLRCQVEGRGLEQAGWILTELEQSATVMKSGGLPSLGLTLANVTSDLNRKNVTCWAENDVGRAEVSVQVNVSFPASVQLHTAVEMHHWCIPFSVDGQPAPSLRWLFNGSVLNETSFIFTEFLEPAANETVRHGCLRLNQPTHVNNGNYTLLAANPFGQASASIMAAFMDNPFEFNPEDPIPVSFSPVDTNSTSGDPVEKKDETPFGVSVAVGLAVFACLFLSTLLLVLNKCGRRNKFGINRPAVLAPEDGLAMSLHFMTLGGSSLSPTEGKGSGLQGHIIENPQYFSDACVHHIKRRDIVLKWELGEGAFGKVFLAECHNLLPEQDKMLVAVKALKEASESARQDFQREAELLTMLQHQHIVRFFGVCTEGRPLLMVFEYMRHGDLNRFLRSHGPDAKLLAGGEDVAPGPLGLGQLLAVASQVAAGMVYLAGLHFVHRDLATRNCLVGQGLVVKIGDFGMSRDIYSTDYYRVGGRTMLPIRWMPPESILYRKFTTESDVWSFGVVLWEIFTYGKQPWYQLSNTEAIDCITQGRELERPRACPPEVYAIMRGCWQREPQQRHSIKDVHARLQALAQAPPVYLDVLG
Chain of 5-hydroxytryptamine receptor 1E (Homo sapiens) (P28566 whole entry): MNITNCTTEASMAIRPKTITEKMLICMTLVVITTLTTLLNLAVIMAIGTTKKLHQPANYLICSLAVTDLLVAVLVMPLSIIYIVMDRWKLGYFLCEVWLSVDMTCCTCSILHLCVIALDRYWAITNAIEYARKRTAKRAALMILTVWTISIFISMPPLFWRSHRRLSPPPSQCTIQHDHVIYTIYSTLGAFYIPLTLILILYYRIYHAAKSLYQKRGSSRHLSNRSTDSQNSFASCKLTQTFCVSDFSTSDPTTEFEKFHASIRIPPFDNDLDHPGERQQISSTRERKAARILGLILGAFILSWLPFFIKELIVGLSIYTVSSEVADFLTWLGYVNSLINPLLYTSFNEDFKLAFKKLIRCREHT
Chain of Serine/threonine-protein kinase MRCK alpha (Homo sapiens) (Q5VT25 whole entry): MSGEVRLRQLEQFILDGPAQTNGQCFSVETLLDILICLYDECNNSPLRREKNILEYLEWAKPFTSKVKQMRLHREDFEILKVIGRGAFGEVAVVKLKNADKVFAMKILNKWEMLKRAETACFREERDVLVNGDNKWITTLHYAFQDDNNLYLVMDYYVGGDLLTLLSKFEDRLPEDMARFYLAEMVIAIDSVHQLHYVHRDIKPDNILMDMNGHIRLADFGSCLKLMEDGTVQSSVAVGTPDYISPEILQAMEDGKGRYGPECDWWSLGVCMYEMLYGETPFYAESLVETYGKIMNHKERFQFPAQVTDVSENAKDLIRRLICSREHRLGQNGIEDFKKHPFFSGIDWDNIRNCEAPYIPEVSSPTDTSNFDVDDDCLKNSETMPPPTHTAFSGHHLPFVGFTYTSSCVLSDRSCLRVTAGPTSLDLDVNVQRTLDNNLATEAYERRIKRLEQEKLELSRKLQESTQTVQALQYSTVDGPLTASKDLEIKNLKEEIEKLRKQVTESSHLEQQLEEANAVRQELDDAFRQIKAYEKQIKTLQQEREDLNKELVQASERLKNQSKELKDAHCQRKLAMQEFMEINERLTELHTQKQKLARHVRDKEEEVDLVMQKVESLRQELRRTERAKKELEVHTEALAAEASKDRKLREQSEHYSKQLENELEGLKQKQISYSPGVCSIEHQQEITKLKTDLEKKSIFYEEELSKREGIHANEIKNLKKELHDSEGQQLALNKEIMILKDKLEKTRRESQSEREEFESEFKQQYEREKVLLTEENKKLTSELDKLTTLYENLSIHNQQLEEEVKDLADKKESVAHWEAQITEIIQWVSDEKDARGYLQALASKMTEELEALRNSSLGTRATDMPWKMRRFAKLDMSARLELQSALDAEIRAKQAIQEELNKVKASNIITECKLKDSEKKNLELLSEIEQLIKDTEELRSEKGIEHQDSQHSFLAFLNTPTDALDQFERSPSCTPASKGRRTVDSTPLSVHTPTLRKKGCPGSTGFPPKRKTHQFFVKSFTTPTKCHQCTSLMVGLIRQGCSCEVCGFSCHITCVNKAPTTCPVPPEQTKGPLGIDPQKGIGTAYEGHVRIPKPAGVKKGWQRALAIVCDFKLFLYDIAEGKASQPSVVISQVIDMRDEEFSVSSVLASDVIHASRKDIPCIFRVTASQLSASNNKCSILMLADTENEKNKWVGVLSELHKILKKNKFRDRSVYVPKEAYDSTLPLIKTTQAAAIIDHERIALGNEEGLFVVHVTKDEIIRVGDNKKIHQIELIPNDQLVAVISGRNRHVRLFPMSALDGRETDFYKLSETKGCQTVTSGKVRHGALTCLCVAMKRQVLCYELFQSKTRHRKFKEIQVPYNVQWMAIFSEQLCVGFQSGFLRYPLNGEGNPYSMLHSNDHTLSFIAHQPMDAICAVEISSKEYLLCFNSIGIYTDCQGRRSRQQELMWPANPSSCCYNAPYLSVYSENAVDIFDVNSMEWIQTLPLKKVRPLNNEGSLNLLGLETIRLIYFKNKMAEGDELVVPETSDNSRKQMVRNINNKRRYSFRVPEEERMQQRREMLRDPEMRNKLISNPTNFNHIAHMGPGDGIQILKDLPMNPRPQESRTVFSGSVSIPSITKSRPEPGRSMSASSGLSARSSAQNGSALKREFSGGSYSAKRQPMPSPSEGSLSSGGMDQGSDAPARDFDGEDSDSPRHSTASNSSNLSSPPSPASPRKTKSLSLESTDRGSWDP
Chain of 5-hydroxytryptamine receptor 1B (Homo sapiens) (P28222 whole entry): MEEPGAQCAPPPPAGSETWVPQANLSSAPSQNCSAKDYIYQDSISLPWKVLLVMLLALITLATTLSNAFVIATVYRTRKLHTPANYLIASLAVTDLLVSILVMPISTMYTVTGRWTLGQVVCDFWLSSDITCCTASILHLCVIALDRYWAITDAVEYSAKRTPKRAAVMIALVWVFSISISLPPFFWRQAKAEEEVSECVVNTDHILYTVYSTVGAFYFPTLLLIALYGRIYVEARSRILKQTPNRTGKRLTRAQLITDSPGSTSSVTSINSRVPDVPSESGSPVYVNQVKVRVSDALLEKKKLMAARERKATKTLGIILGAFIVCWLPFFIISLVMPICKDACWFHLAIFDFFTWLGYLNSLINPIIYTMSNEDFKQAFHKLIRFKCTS

O=C(NCc1ncc(C(F)(F)F)cc1Cl)c1ccc2c(c1)C1(CCS(=O)(=O)CC1)[C@H](C1CC1)N2S(=O)(=O)c1ccc(F)cc1 [BAY-784]
inactive: inhibition [1] -6.19% | residual activity [2] 60% | residual activity [3] 100% | residual activity [4] 89% | residual activity [5] 93% | residual activity [6] 100% | residual activity [7] 100% | residual activity [8] 79% | residual activity [9] 89% | residual activity [10] 100% | residual activity [11] 100% | residual activity [12] 100% | residual activity [13] 100% | inhibition [14] 4.13% | residual activity [15] 92% | residual activity [16] 79% | residual activity [17] 100% | residual activity [18] 96% | residual activity [19] 100% | residual activity [20] 80% | residual activity [21] 88% | residual activity [22] 100% | residual activity [23] 77% | residual activity [24] 91% | residual activity [25] 83% | residual activity [26] 58% | residual activity [27] 100% | residual activity [28] 84% | residual activity [29] 83% | residual activity [30] 100% | residual activity [31] 85% | residual activity [32] 57% | residual activity [33] 100% | residual activity [34] 100% | inhibition [35] 10.4% | residual activity [36] 80% | residual activity [37] 70%

O=C(NCc1ncc(C(F)(F)F)cc1Cl)c1ccc2c(c1)C1(CCS(=O)(=O)CC1)[C@@H](C1CC1)N2S(=O)(=O)c1ccc(F)cc1 [BAY-786]
inactive: inhibition [1] -2.74% | residual activity [2] 71% | residual activity [3] 91% | residual activity [4] 100% | residual activity [5] 86% | residual activity [6] 100% | residual activity [7] 100% | residual activity [8] 77% | residual activity [9] 100% | residual activity [10] 99% | residual activity [11] 89% | residual activity [12] 100% | residual activity [13] 100% | inhibition [14] -3.69% | residual activity [15] 89% | residual activity [16] 64% | residual activity [17] 88% | residual activity [18] 85% | residual activity [19] 93% | residual activity [20] 75% | residual activity [21] 73% | residual activity [22] 100% | residual activity [23] 96% | residual activity [24] 92% | residual activity [25] 85% | residual activity [26] 78% | residual activity [27] 71% | residual activity [28] 71% | residual activity [29] 68% | residual activity [30] 100% | residual activity [31] 100% | residual activity [32] 72% | residual activity [33] 100% | residual activity [34] 100% | inhibition [35] -1.55% | residual activity [36] 83% | residual activity [37] 87%
